Data: US5883243A, “Non-reducing saccharides, their preparations and uses” (Kabushiki Kaisha Hayashibara Seibutsu Kagaku Kenkyujo, priority 1997, dated 1999)

Tests used:
bifid bacteria [1] = assay: Influence on growth-promoting activity for bifid bacteria in vivo (feces of volunteers); set-up: species or system human; conditions: after vs before 14-day administration; span over both saccharides
Method: The weight of daily feces before and after the 14-day administration tests, the relative change of feces' weight, the feces' pH, the total number of microorganisms per g of feces, the percentage of the number of bifid bacteria to the total number of microorganisms in feces, and the relative change of the total number of bifid bacteria were measured, followed by calculating the mean value of the five volunteers. Among these measurements, the total number of microorganisms was determined in accordance with the method as reported in "A Color Atlas of Anaerobic Bacteria", pp.53-65 (1984), edited by Tomotari MITSUOKA, published by Kabushiki Kaisha Sobunsha, Tokyo, Japan (1984): The colonies grown in 13 different types of media excluding M10 medium were judged for which genus they belong to and counted for cells. The cell count obtained with a specific medium, which gave the highest number of microorganisms for each genus, was determined to be a real cell count. The total cell count of microorganisms of all the genera was determined to be the total number of microorganisms in each volunteer's feces.

[2] = tested on: Eubacterium aerofaciens ATCC 25986; assay: Assimilation test by intestinal microorganism; assay type: cell-based; conditions: 0.5 w/v % saccharide in PYF broth, 37° C., 96 hours
Acute toxicity test = assay type: in vivo; conditions: oral, mice, highest possible dose
From the text: As a result, no mouse died even when administered with a highest possible dose. This means that the LD50 is 50 g/kg mouse or more and concludes that it is extremely low in toxicity.

[3] = Maillard reaction (coloration with glycine); assay type: physicochemical; conditions: 10 w/v % saccharide, one w/v % glycine, 50 mM phosphate buffer pH 7.0, 100° C., 90 min; 1-cm cell
[4] = tested on: Clostridium ramosum JCM 1298; assay: Assimilation test by intestinal microorganism; assay type: cell-based; conditions: 0.5 w/v % saccharide in PYF broth, 37° C., 96 hours
[5] = tested on: Peptostreptococcus prevotii ATCC 9321; assay: Assimilation test by intestinal microorganism; assay type: cell-based; conditions: 0.5 w/v % saccharide in PYF broth, 37° C., 96 hours
[6] = tested on: Lactobacillus fermentum IFO 3959; assay: Assimilation test by intestinal microorganism; assay type: cell-based; conditions: 0.5 w/v % saccharide in PYF broth, 37° C., 96 hours
[7] = tested on: Bacteroides vulgatus JCM 5826; assay: Assimilation test by intestinal microorganism; assay type: cell-based; conditions: 0.5 w/v % saccharide in PYF broth, 37° C., 96 hours
[8] = tested on: Clostridium perfringens JCM 3816; assay type: cell-based; conditions: 0.5 w/v % saccharide in PYF broth, 37° C., 96 hours
[9] = tested on: Bacteroides uniformis JCM 5828; assay: Assimilation test by intestinal microorganism; assay type: cell-based; conditions: 0.5 w/v % saccharide in PYF broth, 37° C., 96 hours
[10] = tested on: Escherichia coli IFO 3301; assay: Assimilation test by intestinal microorganism; assay type: cell-based; conditions: 0.5 w/v % saccharide in PYF broth, 37° C., 96 hours
[11] = tested on: Lactobacillus plantarum IFO 3070; assay: Assimilation test by intestinal microorganism; assay type: cell-based; conditions: 0.5 w/v % saccharide in PYF broth, 37° C., 96 hours
[12] = tested on: Bifidobacterium animalis JCM 1190; assay: Assimilation test by intestinal microorganism; assay type: cell-based; conditions: 0.5 w/v % saccharide in PYF broth, 37° C., 96 hours
[13] = tested on: Bifidobacterium breve JCM 1192; assay: Assimilation test by intestinal microorganism; assay type: cell-based; conditions: 0.5 w/v % saccharide in PYF broth, 37° C., 96 hours
[14] = tested on: Enzyme from small intestinal mucus membrane; conditions: enzymes of small intestinal mucus membranes
[15] = tested on: Bifidobacterium adolescentis JCM 1275; assay: Assimilation test by intestinal microorganism; assay type: cell-based; conditions: 0.5 w/v % saccharide in PYF broth, 37° C., 96 hours
[16] = tested on: Streptococcus faecalis IAM 10065; assay: Assimilation test by intestinal microorganism; assay type: cell-based; conditions: 0.5 w/v % saccharide in PYF broth, 37° C., 96 hours
[17] = tested on: Streptococcus sobrinus ATCC 27351; assay: Acid formation by dental caries-inducing microorganisms; conditions: living wet cells, 0.02M saccharide, Stephen buffer pH 7.0, 37° C.; for pH at each fermentation time (min): 0: 0 min; for pH at each fermentation time (min): 5: 5 min; for pH at each fermentation time (min): 15: 15 min; for pH at each fermentation time (min): 30: 30 min; for pH at each fermentation time (min): 60: 60 min; for pH at each fermentation time (min): 90: 90 min
bifid bacteria [18] = assay: Assimilation test by intestinal microorganism, overall judgement; assay type: cell-based; conditions: results of Tables 4 and 5
Method: To evaluate the growth rate of and to judge the assimilability by the microorganisms, the resultant broth was diluted 5-fold, and the turbidity of the dilution was measured at a wavelength of 750 nm in a 1-cm light-path cell. […] The criteria were in Table 3, and the results were in Tables 4 and 5: […]

[19] = tested on: Bifidobacterium longum JCM 1217; assay: Assimilation test by intestinal microorganism; assay type: cell-based; conditions: 0.5 w/v % saccharide in PYF broth, 37° C., 96 hours
[20] = tested on: Bacteroides distasonis JCM 5825; assay: Assimilation test by intestinal microorganism; assay type: cell-based; conditions: 0.5 w/v % saccharide in PYF broth, 37° C., 96 hours
[21] = tested on: Bifidobacterium bifidum JCM 1255; assay: Assimilation test by intestinal microorganism; assay type: cell-based; conditions: 0.5 w/v % saccharide in PYF broth, 37° C., 96 hours
[22] = tested on: crude glucosyltransferase specimen derived from Streptococcus sobrinus strain (ATCC 27351); assay: Inhibition of insoluble glucan formation by glucosyltransferase from dental caries-inducing microorganism; assay type: biochemical; conditions: sucrose plus test saccharide (one ml of one w/v % each), pH 6.8, 37° C., 16 hours; for Yield of non-adsorbed glucans: sucrose alone 923; for Yield of adsorbed glucans: sucrose alone 1,160
Method: To a mixture solution consisting of one ml of one w/v % sucrose solution, one ml of one w/v % of a test saccharide solution, and 1.5 ml of 0.1M phosphate buffer (pH 6.8) was added 0.5 ml solution containing a crude glucosyltransferase specimen in a total protein content of 10 mg, and the mixture solution was placed in a small test tube which was then fixed and slanted to give a grade 30 degrees and allowed to react at 37° C. for 16 hours. The reaction mixture was transferred gently to another test tube and mixed with a solution obtained by washing carefully with 4 ml water the remaining substances adhered to the inner walls of the small test tube, and the mixture solution was centrifuged to obtain a precipitate as a non-adsorbed glucan. The amounts of the adsorbed- and non-adsorbed glucans thus obtained were respectively quantified by the anthrone-sulfuric acid method, and the total amount of them was regarded as the amount of the formed insoluble glucans. As a control system, a reaction system using water in place of the test saccharide solution, i.e. a reaction system using sucrose as a saccharide, was provided.

[23] = tested on: Bifidobacterium infantis JCM 1222; assay: Assimilation test by intestinal microorganism; assay type: cell-based; conditions: 0.5 w/v % saccharide in PYF broth, 37° C., 96 hours
[24] = tested on: Clostridium butyricum JCM 1391; assay type: cell-based; conditions: 0.5 w/v % saccharide in PYF broth, 37° C., 96 hours

SMILES | Increase of the total cell count of bifid bacteria (bifid bacteria [1]) | Judgement of assimilation (turbidity at a wavelength of 750 nm × 5) [2] | Coloration degree (at a wavelength of 480 nm) [3] | Judgement of assimilation (turbidity at a wavelength of 750 nm × 5) [4] | Judgement of assimilation (turbidity at a wavelength of 750 nm × 5) [5] | Judgement of assimilation (turbidity at a wavelength of 750 nm × 5) [6] | Judgement of assimilation (turbidity at a wavelength of 750 nm × 5) [7] | Judgement of assimilation (turbidity at a wavelength of 750 nm × 5) [8] | Judgement of assimilation (turbidity at a wavelength of 750 nm × 5) [9] | Judgement of assimilation (turbidity at a wavelength of 750 nm × 5) [10] | Judgement of assimilation (turbidity at a wavelength of 750 nm × 5) [11] | Judgement of assimilation (turbidity at a wavelength of 750 nm × 5) [12] | Judgement of assimilation (turbidity at a wavelength of 750 nm × 5) [13] | Digestibility, judgement in words [14] | Judgement of assimilation (turbidity at a wavelength of 750 nm × 5) [15] | Judgement of assimilation (turbidity at a wavelength of 750 nm × 5) [16] | pH at each fermentation time (min): 0 [17] | pH at each fermentation time (min): 5 [17] | pH at each fermentation time (min): 15 [17] | pH at each fermentation time (min): 30 [17] | further results
OC[C@H]1O[C@H](OC[C@H]2O[C@H](O[C@H]3O[C@H](CO)[C@@H](O)[C@H](O)[C@H]3O)[C@H](O)[C@@H](O)[C@@H]2O)[C@H](O)[C@@H](O)[C@@H]1O [O-α-D-glucopyranosyl-(1→6)-α-D-glucopyranosyl α-D-glucopyranoside] | 2.3- to 2.5 fold | - (Less than 0.1) | 0.021 | - (Less than 0.1) | ± (0.1 or higher but less than 0.15) | - (Less than 0.1) | - (Less than 0.1) | + (0.15 or higher but less than 0.2) | - (Less than 0.1) | - (Less than 0.1) | - (Less than 0.1) | +++ (0.3 or higher) | +++ (0.3 or higher) | slightly hydrolyzed | +++ (0.3 or higher) | - (Less than 0.1) | 7.0 | 7.0 | 6.9 | 6.9 | Mortality in acute toxicity test, in words (Acute toxicity test): no mouse died; pH at each fermentation time (min): 60 [17]: 6.9; pH at each fermentation time (min): 90 [17]: 6.9; Selective assimilability by bifid bacteria, in words (bifid bacteria [18]): high in the selective assimilability by bifid bacteria; Judgement of assimilation (turbidity at a wavelength of 750 nm × 5) [19]: +++ (0.3 or higher); Judgement of assimilation (turbidity at a wavelength of 750 nm × 5) [20]: - (Less than 0.1); Judgement of assimilation (turbidity at a wavelength of 750 nm × 5) [21]: ++ (0.2 or higher but less than 0.3); Yield of non-adsorbed glucans [22]: 118 µg/mL; Yield of adsorbed glucans [22]: 30 µg/mL; Judgement of assimilation (turbidity at a wavelength of 750 nm × 5) [23]: +++ (0.3 or higher)
OC[C@H]1O[C@H](OC[C@H]2O[C@H](O[C@H]3O[C@H](CO[C@H]4O[C@H](CO)[C@@H](O)[C@H](O)[C@H]4O)[C@@H](O)[C@H](O)[C@H]3O)[C@H](O)[C@@H](O)[C@@H]2O)[C@H](O)[C@@H](O)[C@@H]1O [α-Isomaltosyl α-isomaltoside, O-α-D-glucopyranosyl-(1→6)-α-D-glucopyranosyl O-α-D-glucopyranosyl-(1→6)-α-D-glucopyranoside] | 2.3- to 2.5 fold | - (Less than 0.1) | 0.016 | - (Less than 0.1) | ± (0.1 or higher but less than 0.15) | - (Less than 0.1) | - (Less than 0.1) | - (Less than 0.1) | - (Less than 0.1) | - (Less than 0.1) | - (Less than 0.1) | +++ (0.3 or higher) | +++ (0.3 or higher) | relatively-low in digestibility | +++ (0.3 or higher) | - (Less than 0.1) | 7.0 | 7.0 | 6.9 | 6.9 | Judgement of assimilation (turbidity at a wavelength of 750 nm × 5) [24]: +++ (0.3 or higher); pH at each fermentation time (min): 60 [17]: 6.9; pH at each fermentation time (min): 90 [17]: 6.9; Selective assimilability by bifid bacteria, in words (bifid bacteria [18]): high in the selective assimilability by bifid bacteria; Judgement of assimilation (turbidity at a wavelength of 750 nm × 5) [19]: +++ (0.3 or higher); Judgement of assimilation (turbidity at a wavelength of 750 nm × 5) [20]: - (Less than 0.1); Judgement of assimilation (turbidity at a wavelength of 750 nm × 5) [21]: ++ (0.2 or higher but less than 0.3); Yield of non-adsorbed glucans [22]: 298 µg/mL; Yield of adsorbed glucans [22]: 72 µg/mL; Judgement of assimilation (turbidity at a wavelength of 750 nm × 5) [23]: +++ (0.3 or higher)
